Here are results for three compounds from paper PMC3155243 (Molecular cancer therapeutics, 2011).

In general, Tmax refers to the time at which the peak concentration occurs. In general, clearance refers to a measure of how efficiently the substance is removed, as volume per time.

One data set can be described thus: clinical. To be noted: human, plasma, intravenous.
A short description of data set [1]: Paclitaxel plasma pharmacokinetics.
Data set [2] deals with BMK cancer cell lines and allograft tumors with RAS/RAF/MAPK pathway activation. To be noted: baby mouse kidney (BMK) epithelial cell model; cited from earlier work.
In the next data set the test system is proteasome. Particulars: bortezomib dose 0.7 mg/m^2; cited from earlier work.
Another data set has as its system advanced solid tumours. Particulars: bortezomib days 1, 4, 8 and 11 with paclitaxel days 1 and 8; cited from earlier work.
For data set [3] the following is noted: human, in vivo.
For data set [4] the following is noted: with bortezomib and paclitaxel; cited from earlier work.
Where [5] appears, read: Dose Level 1: paclitaxel 40 mg/m^2 + bortezomib 0.7 mg/m^2.
[6] abbreviates: Dose Level 2: paclitaxel 45 mg/m^2 + bortezomib 0.75 mg/m^2.
[7] abbreviates: Dose Level 4: paclitaxel 60 mg/m^2 + bortezomib 1.0 mg/m^2.

With `CC(=O)O[C@H]1C(=O)[C@@]2(C)[C@H]([C@H](OC(=O)c3ccccc3)[C@]3(O)C[C@H](OC(=O)[C@H](O)[C@@H](NC(=O)c4ccccc4)c4ccccc4)C(C)=C1C3(C)C)[C@]1(OC(C)=O)CO[C@@H]1C[C@@H]2O` [paclitaxel], the Tmax in the data set “clinical” amounted to 1 h. For the same compound, the clearance in “clinical” was 283 to 800 mL/min; in data set [1] (setting [7]), 27.2 L/h. Further, the “AUC (last)” value is 1140 ± 450 ng·h/mL in data set [1] (setting [5]), 1430 ± 900 ng·h/mL in data set [1] (setting [6]), 1700 ± 370 ng·h/mL in data set [1] (Dose Level 3: paclitaxel 51 mg/m^2 + bortezomib 0.86 mg/m^2) and 2290 ± 740 ng·h/mL in data set [1] (setting [7]). Further, the T1/2 was 1.75 ± 1.45 h in data set [1] (setting [5]), 0.69 ± 0.20 h in data set [1] (setting [6]) and 1.83 ± 0.86 h in data set [1] (setting [7]). Besides, the “effect on BIM” value in data set [2] was “induced selective BIM accumulation”.
On to `CC(C)C[C@H](NC(=O)[C@H](Cc1ccccc1)NC(=O)c1cnccn1)B(O)O` [bortezomib], for which, in the data set on proteasome, the “effect on proteasome function” value is recorded as “effectively inhibit proteasome function”. For the same compound, the “recommended phase II dose of bortezomib” value with advanced solid tumours is 1.3 mg/m^2. In addition, the MTD of bortezomib in data set [3] worked out at 1.0 mg/m^2.
Consider `N.N.O=C([O-])C1(C(=O)[O-])CCC1.[Pt+2]` [carboplatin], for which, in data set [4], the “recommended phase II dose of carboplatin” value is on record as 6 AUC.
